The nature of this assay: Inhibition of bovine topoisomerase I, using cleavable complex assay.
A word on the IC50: it is the concentration that gives 50% inhibition. Low values mean inhibition by little substance, high ones a need for much substance. `CCC1(O)C(=O)OCc2c1cc1n(c2=O)C/C(=C2\C(=O)Nc3c2ccc(F)c3C)C1=O` (configuration not stated) [4-Ethyl-7-[6-fluoro-7-methyl-2-oxo-1,2-dihydro-indol-(3E)-ylidene]-4-hydroxy-1,4,7,8-tetrahydro-pyrano[3,4-f]indolizine-3,6,10-trione]: the IC50 is over 100 µM.

Compound `CC[C@@]1(O)C(=O)OCc2c1cc1n(c2=O)C/C(=C2\C(=O)Nc3ccccc32)C1=O` [(S)-4-Ethyl-4-hydroxy-7-[2-oxo-1,2-dihydro-indol-(3E)-ylidene]-1,4,7,8-tetrahydro-pyrano[3,4-f]indolizine-3,6,10-trione] had an IC50 of over 100 µM.

Take `CC[C@]1(O)C(=O)OCc2c1cc1n(c2=O)C/C(=C2\C(=O)Nc3c2cc(C)cc3[N+](=O)[O-])C1=O` [(R)-4-Ethyl-4-hydroxy-7-[5-methyl-7-nitro-2-oxo-1,2-dihydro-indol-(3E)-ylidene]-1,4,7,8-tetrahydro-pyrano[3,4-f]indolizine-3,6,10-trione]: the IC50 was over 100 µM.

In the case of `CC[C@]1(O)C(=O)OCc2c1cc1n(c2=O)C/C(=C2\C(=O)Nc3cc(SC)ccc32)C1=O` [(R)-4-Ethyl-4-hydroxy-7-[6-methylsulfanyl-2-oxo-1,2-dihydro-indol-(3E)-ylidene]-1,4,7,8-tetrahydro-pyrano[3,4-f]indolizine-3,6,10-trione], the IC50 was over 100 µM.

`CCC1(O)C(=O)OCc2c1cc1n(c2=O)C/C(=C2\C(=O)Nc3cc(F)c(F)cc32)C1=O` (configuration not stated) [7-[5,6-Difluoro-2-oxo-1,2-dihydro-indol-(3E)-ylidene]-4-ethyl-4-hydroxy-1,4,7,8-tetrahydro-pyrano[3,4-f]indolizine-3,6,10-trione] had an IC50 of 1.5 µM.

`CC[C@]1(O)C(=O)OCc2c1cc1n(c2=O)C/C(=C2\C(=O)Nc3cc(OC(F)(F)F)ccc32)C1=O` [(R)-4-Ethyl-4-hydroxy-7-[2-oxo-6-trifluoromethoxy-1,2-dihydro-indol-(3E)-ylidene]-1,4,7,8-tetrahydro-pyrano[3,4-f]indolizine-3,6,10-trione]: the IC50 is over 100 µM.

Take `CCC1(O)C(=O)OCc2c1cc1n(c2=O)C/C(=C2\C(=O)Nc3ccc(I)cc32)C1=O` (configuration not stated) [4-Ethyl-4-hydroxy-7-[5-iodo-2-oxo-1,2-dihydro-indol-(3E)-ylidene]-1,4,7,8-tetrahydro-pyrano[3,4-f]indolizine-3,6,10-trione]: the IC50 worked out at 32 µM.

As to `CCC1(O)C(=O)OCc2c1cc1n(c2=O)C/C(=C2\C(=O)Nc3ccc(F)cc32)C1=O` (configuration not stated) [4-Ethyl-7-[5-fluoro-2-oxo-1,2-dihydro-indol-(3E)-ylidene]-4-hydroxy-1,4,7,8-tetrahydro-pyrano[3,4-f]indolizine-3,6,10-trione], 1.2 µM corresponded to half-maximal inhibition (IC50). This IC50 lies about 27-fold lower than the previous one.

With `CCC1(O)C(=O)OCc2c1cc1n(c2=O)C/C(=C2\C(=O)Nc3ccc([N+](=O)[O-])cc32)C1=O` (configuration not stated) [4-Ethyl-4-hydroxy-7-[5-nitro-2-oxo-1,2-dihydro-indol-(3E)-ylidene]-1,4,7,8-tetrahydro-pyrano[3,4-f]indolizine-3,6,10-trione], the IC50 was over 100 µM.

In turn, `CC[C@]1(O)C(=O)OCc2c1cc1n(c2=O)C/C(=C2\C(=O)Nc3c(Cl)cccc32)C1=O` [(R)-7-[7-Chloro-2-oxo-1,2-dihydro-indol-(3E)-ylidene]-4-ethyl-4-hydroxy-1,4,7,8-tetrahydro-pyrano[3,4-f]indolizine-3,6,10-trione] showed an IC50 of over 100 µM.

`CCC1(O)C(=O)OCc2c1cc1n(c2=O)C/C(=C2\C(=O)N(C)c3ccccc32)C1=O` (configuration not stated) [4-Ethyl-4-hydroxy-7-[1-methyl-2-oxo-1,2-dihydro-indol-(3E)-ylidene]-1,4,7,8-tetrahydro-pyrano[3,4-f]indolizine-3,6,10-trione] showed an IC50 of over 100 µM.

In the case of `CCC1(O)C(=O)OCc2c1cc1n(c2=O)C/C(=C2\C(=O)Nc3ccccc32)C1=O` (configuration not stated) [4-Ethyl-4-hydroxy-7-[2-oxo-1,2-dihydro-indol-(3E)-ylidene]-1,4,7,8-tetrahydro-pyrano[3,4-f]indolizine-3,6,10-trione], the IC50 amounted to 5.8 µM.

Regarding `CCC1(O)C(=O)OCc2c1cc1n(c2=O)C/C(=C2\C(=O)Nc3cc(OC)ccc32)C1=O` (configuration not stated) [4-Ethyl-4-hydroxy-7-[6-methoxy-2-oxo-1,2-dihydro-indol-(3E)-ylidene]-1,4,7,8-tetrahydro-pyrano[3,4-f]indolizine-3,6,10-trione], the IC50 is over 100 µM.

`CC[C@]1(O)C(=O)OCc2c1cc1n(c2=O)C/C(=C2\C(=O)Nc3ccc(F)cc32)C1=O` [(R)-4-Ethyl-7-[5-fluoro-2-oxo-1,2-dihydro-indol-(3E)-ylidene]-4-hydroxy-1,4,7,8-tetrahydro-pyrano[3,4-f]indolizine-3,6,10-trione] gave an IC50 of 1.1 µM. In other words, the single-digit micromolar range.

As to `CC[C@]1(O)C(=O)OCc2c1cc1n(c2=O)C/C(=C2\C(=O)Nc3ccc(Br)cc32)C1=O` [(R)-7-[5-Bromo-2-oxo-1,2-dihydro-indol-(3E)-ylidene]-4-ethyl-4-hydroxy-1,4,7,8-tetrahydro-pyrano[3,4-f]indolizine-3,6,10-trione], the IC50 was over 100 µM.

Compound `CC[C@@]1(O)C(=O)OCc2c1cc1n(c2=O)C/C(=C2\C(=O)Nc3ccc(F)cc32)C1=O` [(S)-4-Ethyl-7-[5-fluoro-2-oxo-1,2-dihydro-indol-(3E)-ylidene]-4-hydroxy-1,4,7,8-tetrahydro-pyrano[3,4-f]indolizine-3,6,10-trione] gave an IC50 of over 100 µM.

`CC[C@]1(O)C(=O)OCc2c1cc1n(c2=O)C/C(=C2\C(=O)Nc3ccccc32)C1=O` [(R)-4-Ethyl-4-hydroxy-7-[2-oxo-1,2-dihydro-indol-(3E)-ylidene]-1,4,7,8-tetrahydro-pyrano[3,4-f]indolizine-3,6,10-trione] showed an IC50 of 4 µM.

`CC[C@]1(O)C(=O)OCc2c1cc1n(c2=O)C/C(=C2\C(=O)Nc3ccc(I)cc32)C1=O` [(R)-4-Ethyl-4-hydroxy-7-[5-iodo-2-oxo-1,2-dihydro-indol-(3E)-ylidene]-1,4,7,8-tetrahydro-pyrano[3,4-f]indolizine-3,6,10-trione] had an IC50 of 12.1 µM. This IC50 is about 3-fold higher than that of the compound before.

The compound `CCC1(O)C(=O)OCc2c1cc1n(c2=O)C/C(=C2\C(=O)Nc3c2cc(F)c(F)c3F)C1=O` (configuration not stated) [4-Ethyl-4-hydroxy-7-[5,6,7-trifluoro-2-oxo-1,2-dihydro-indol-(3E)-ylidene]-1,4,7,8-tetrahydro-pyrano[3,4-f]indolizine-3,6,10-trione] returned an IC50 of over 100 µM.

`CC[C@]1(O)C(=O)OCc2c1cc1n(c2=O)C/C(=C2\C(=O)Nc3c(C)cccc32)C1=O` [(R)-4-Ethyl-4-hydroxy-7-[7-methyl-2-oxo-1,2-dihydro-indol-(3E)-ylidene]-1,4,7,8-tetrahydro-pyrano[3,4-f]indolizine-3,6,10-trione]: the IC50 is over 100 µM.

In the case of `CCC1(O)C(=O)OCc2c1cc1n(c2=O)C/C(=C2\C(=O)Nc3cc4c(cc32)OCCO4)C1=O` (configuration not stated) [4-Ethyl-4-hydroxy-7-[7-oxo-2,3,6,7-tetrahydro-[1,4]dioxino[2,3-f]indol-(8E)-ylidene]-1,4,7,8-tetrahydro-pyrano[3,4-f]indolizine-3,6,10-trione], the IC50 amounted to 29.6 µM.

Compound `CC[C@]1(O)C(=O)OCc2c1cc1n(c2=O)C/C(=C2\C(=O)Nc3cc(F)c(F)cc32)C1=O` [(R)-7-[5,6-Difluoro-2-oxo-1,2-dihydro-indol-(3E)-ylidene]-4-ethyl-4-hydroxy-1,4,7,8-tetrahydro-pyrano[3,4-f]indolizine-3,6,10-trione] showed an IC50 of 1.3 µM.
